Here are results for one compound from PMC11233931, “Remodeling tumor‐associated macrophage for anti‐cancer effects by rational design of irreversible inhibition of mitogen‐activated protein kinase‐activated protein kinase 2” (MedComm, 2024).

Assay in all cases: Eurofins kinase selectivity profile against 380 other human recombinant kinases (Table S2)
Common to all, as to type: biochemical

The target in test [1] is T1, 380 human recombinant protein kinases (Homo sapiens, UniProt P51955).
T1 construct: purchased Eurofins (Celle Lévescault)
T1 sequence (P51955 1-445): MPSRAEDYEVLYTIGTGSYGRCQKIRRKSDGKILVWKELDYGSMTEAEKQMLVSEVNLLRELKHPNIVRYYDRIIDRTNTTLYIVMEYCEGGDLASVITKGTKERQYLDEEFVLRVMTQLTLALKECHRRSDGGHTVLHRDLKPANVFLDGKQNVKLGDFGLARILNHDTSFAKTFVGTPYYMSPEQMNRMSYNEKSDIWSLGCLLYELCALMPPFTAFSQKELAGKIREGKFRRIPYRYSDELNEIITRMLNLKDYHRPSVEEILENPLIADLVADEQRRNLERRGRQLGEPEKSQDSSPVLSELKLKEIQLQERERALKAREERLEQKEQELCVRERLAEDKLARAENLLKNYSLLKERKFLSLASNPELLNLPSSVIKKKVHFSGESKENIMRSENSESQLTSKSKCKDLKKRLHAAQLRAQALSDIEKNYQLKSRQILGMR
The note with it: NEK2(h), read-out: Inhibition rate. The procedure, abridged:
(§1)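 Values come from a contract kinase-profiling service that tested the compound at multiple concentrations across 380 recombinant human kinases, as an off-target check against the MK2 activity.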

Test [2] addresses T2, 380 human recombinant protein kinases (Homo sapiens, UniProt P80192).
T2 construct: purchased Eurofins (Celle Lévescault)
The note with it: MLK1(h), read-out: Inhibition rate. The procedure, abridged:
as §1

For test [3], the target named is T3, 380 human recombinant protein kinases (Homo sapiens, UniProt Q04912).
T3 construct: purchased Eurofins (Celle Lévescault)
T3 sequence (Q04912 25-1400): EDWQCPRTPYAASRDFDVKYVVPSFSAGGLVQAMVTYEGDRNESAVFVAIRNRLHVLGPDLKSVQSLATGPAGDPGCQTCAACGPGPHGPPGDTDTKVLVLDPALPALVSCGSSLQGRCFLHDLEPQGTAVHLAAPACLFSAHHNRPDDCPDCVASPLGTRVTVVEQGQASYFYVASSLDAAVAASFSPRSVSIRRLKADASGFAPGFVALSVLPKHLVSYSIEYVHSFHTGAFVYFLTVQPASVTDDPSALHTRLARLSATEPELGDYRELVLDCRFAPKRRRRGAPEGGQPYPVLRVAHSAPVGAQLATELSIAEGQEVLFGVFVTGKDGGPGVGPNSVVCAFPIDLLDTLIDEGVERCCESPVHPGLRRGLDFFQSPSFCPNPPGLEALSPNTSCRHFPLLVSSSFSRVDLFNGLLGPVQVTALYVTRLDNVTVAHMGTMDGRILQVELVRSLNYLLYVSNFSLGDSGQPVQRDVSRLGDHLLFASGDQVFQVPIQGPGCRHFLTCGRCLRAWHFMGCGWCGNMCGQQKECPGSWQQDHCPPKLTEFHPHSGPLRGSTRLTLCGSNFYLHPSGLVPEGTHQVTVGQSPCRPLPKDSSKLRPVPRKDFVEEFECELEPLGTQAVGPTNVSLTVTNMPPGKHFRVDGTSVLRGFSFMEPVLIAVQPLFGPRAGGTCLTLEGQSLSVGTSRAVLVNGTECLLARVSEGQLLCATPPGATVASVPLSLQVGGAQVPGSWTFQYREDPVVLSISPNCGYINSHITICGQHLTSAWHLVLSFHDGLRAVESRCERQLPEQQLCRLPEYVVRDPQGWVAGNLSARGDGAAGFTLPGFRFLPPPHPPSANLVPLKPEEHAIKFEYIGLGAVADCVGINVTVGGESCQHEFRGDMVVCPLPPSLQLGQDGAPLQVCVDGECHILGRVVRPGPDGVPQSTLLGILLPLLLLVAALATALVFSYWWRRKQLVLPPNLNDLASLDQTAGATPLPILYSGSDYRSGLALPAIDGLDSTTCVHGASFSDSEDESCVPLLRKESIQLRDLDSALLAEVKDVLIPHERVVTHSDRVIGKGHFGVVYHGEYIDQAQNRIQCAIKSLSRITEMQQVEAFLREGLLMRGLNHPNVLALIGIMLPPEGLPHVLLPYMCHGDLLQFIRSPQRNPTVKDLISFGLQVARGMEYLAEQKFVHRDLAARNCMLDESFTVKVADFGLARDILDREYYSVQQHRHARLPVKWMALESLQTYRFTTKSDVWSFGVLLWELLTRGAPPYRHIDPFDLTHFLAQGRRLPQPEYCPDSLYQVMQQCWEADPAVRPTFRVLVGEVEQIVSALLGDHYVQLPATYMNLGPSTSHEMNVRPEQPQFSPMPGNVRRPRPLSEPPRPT
To be noted: Ron(h), read-out: Inhibition rate. The procedure, abridged: as §1

Test [4] concerns the target T4, 380 human recombinant protein kinases (Homo sapiens, UniProt Q13153).
T4 construct: purchased Eurofins (Celle Lévescault)
To be noted: PAK1(h), read-out: Inhibition rate. The procedure, abridged: as §1

Test [5] deals with T5, 380 human recombinant protein kinases (Homo sapiens, UniProt Q8TDC3).
T5 construct: purchased Eurofins (Celle Lévescault)
T5 sequence (Q8TDC3 1-778): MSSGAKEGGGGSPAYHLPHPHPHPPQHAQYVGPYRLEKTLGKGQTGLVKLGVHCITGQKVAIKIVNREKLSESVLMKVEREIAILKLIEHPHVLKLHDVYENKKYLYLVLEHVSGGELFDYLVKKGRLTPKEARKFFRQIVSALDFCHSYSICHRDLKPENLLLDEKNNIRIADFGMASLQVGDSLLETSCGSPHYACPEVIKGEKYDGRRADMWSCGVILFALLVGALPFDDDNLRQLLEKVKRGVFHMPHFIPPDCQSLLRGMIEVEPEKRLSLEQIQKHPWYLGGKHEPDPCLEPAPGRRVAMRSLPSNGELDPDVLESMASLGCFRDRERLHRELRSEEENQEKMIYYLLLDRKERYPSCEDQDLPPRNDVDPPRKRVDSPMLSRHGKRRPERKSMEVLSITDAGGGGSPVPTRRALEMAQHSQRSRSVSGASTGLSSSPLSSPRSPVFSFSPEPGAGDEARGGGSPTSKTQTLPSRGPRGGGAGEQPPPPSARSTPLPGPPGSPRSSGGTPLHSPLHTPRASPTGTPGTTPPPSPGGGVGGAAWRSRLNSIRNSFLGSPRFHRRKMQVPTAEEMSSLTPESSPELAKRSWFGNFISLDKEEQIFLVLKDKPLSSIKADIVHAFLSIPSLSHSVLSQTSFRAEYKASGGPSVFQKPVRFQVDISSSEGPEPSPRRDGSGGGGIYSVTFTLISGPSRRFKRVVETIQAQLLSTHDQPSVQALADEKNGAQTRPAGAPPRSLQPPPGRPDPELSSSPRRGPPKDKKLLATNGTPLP
The note with it: BrSK1(h), read-out: Inhibition rate. An outline of the steps:
as §1

In test [6] the target is T6, 380 human recombinant protein kinases (Homo sapiens, UniProt Q92630).
T6 construct: purchased Eurofins (Celle Lévescault)
T6 sequence (Q92630 1-601): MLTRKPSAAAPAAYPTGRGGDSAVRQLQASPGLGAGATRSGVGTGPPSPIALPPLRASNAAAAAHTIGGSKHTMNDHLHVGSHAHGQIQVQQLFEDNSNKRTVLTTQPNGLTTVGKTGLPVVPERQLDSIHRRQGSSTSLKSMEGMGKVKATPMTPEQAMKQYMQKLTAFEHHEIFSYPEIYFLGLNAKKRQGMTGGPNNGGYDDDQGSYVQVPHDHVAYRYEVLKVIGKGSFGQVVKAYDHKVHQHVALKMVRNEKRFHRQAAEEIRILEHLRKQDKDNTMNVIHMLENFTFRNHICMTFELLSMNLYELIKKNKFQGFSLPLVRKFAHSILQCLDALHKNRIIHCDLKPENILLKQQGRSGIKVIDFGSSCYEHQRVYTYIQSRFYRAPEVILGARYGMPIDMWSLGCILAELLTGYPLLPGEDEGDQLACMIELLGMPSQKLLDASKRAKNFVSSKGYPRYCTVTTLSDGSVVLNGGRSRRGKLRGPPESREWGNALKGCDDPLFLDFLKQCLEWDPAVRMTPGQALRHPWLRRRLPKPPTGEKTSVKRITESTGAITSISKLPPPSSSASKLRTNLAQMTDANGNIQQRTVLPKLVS
The note with it: DYRK2(h), read-out: Inhibition rate. An outline of the steps:
as §1

The target in test [7] is T7, 380 human recombinant protein kinases (Homo sapiens, UniProt Q9NY57).
T7 construct: purchased Eurofins (Celle Lévescault)
T7 sequence (Q9NY57 whole entry): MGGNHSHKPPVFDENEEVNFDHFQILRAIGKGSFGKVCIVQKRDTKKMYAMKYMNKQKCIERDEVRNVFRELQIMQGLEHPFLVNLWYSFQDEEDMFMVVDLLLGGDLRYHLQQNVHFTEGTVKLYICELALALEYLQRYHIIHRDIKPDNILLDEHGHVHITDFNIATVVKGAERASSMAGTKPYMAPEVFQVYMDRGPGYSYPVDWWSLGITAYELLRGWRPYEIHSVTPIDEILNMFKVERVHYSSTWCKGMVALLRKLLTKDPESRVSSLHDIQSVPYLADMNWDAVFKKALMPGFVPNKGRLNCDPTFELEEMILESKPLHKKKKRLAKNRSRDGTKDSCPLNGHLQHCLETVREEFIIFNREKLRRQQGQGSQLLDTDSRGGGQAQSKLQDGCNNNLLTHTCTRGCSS
To be noted: STK32B(h), read-out: Inhibition rate (%). The procedure, abridged:
as §1

Each structure is given as a SMILES string.

T4 sequence (Q13153 whole entry): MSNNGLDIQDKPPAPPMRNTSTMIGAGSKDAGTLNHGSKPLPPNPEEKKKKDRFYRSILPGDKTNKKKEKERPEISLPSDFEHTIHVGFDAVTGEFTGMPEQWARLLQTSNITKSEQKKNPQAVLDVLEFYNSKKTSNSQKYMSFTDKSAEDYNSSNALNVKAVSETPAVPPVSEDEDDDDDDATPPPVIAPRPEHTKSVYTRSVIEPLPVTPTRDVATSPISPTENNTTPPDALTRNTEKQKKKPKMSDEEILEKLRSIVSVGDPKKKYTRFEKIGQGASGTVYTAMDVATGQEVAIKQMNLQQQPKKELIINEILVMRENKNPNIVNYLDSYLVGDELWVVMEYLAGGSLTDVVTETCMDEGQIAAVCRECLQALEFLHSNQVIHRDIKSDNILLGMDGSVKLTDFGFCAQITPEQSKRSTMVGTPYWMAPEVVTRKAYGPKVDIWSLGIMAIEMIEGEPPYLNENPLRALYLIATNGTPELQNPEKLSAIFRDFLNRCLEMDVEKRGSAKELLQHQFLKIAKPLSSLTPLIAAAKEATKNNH
T2 sequence (P80192 whole entry): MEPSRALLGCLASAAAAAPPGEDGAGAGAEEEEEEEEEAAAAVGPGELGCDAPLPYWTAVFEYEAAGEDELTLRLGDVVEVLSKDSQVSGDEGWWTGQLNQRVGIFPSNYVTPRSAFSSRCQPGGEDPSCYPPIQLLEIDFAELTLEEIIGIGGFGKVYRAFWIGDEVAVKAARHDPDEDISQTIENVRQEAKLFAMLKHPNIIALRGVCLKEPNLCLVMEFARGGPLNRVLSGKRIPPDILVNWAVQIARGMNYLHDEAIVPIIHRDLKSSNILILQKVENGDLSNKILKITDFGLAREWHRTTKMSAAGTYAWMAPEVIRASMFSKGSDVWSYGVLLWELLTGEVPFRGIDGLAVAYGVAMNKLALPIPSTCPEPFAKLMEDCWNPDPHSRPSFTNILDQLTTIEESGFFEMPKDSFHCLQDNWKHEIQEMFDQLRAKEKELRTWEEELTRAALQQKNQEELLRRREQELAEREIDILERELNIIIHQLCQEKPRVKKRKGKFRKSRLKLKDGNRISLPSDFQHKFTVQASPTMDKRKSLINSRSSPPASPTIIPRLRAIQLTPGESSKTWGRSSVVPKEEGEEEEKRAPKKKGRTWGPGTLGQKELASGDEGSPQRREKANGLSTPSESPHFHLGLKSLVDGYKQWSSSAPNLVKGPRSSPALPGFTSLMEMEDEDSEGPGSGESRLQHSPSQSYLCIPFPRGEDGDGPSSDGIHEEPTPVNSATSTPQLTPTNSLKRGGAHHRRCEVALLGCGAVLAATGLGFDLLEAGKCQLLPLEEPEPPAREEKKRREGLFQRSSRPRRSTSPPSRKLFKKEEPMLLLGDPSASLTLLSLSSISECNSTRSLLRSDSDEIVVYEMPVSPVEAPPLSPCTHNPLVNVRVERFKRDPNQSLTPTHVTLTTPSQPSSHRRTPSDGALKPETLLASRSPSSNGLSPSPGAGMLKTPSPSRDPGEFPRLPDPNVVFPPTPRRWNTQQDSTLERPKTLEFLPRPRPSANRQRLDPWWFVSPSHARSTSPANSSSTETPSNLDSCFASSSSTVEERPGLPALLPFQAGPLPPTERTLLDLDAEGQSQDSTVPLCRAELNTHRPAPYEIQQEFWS

Broadly, the inhibition is the relative decrease from the control value, in per cent. For `C=CC(=O)Nc1cc(-c2cc(-c3cc4c([nH]3)CCNC4=O)ccn2)ccc1OC(F)(F)F` [compound 11], the inhibition at 0.01 µM was -3% in test [1] (10 nM); -3% in test [2] (10 nM); -4% in test [3] (10 nM); -10% in test [4] (10 nM); -7% in test [5] (10 nM); 16% in test [6] (10 nM). For the same compound, the inhibition at 0.01 µM in test [7] (10 nM) is -9%. Moreover, the inhibition at 0.1 µM in test [1] (100 nM) is 0%; in test [2] (100 nM) it was 0%; in test [3] (100 nM) it was 26%; in test [4] (100 nM) it was -7%; in test [5] (100 nM), -3%; in test [6] (100 nM), 67%. In addition, the inhibition at 0.1 µM in test [7] (100 nM) is -5%. The inhibition at 1 µM in test [1] (1000 nM) is 11%; in test [2] (1000 nM), 10%; in test [3] (1000 nM) it was 77%; in test [4] (1000 nM), -5%; in test [5] (1000 nM), 17%; in test [6] (1000 nM) it was 98%. Moreover, the inhibition at 1 µM in test [7] (1000 nM) was -3%.
